The inhibition is the percentage by which the read-out fell short of the control. Lower therefore signals a response near the control.

Assay [1] concerns the target T1, fatty acyl CoA:cholesterol acyl transferase (ACAT) (Rattus norvegicus, UniProt O70536).
T1 construct: Rat adrenals were homogenized in 0.2M monobasic potassium phosphate buffer; from tissue; host or cells: rat adrenals, 1000 x g supernatant of the homogenate containing the microsomal fraction
T1 sequence (O70536 1-545): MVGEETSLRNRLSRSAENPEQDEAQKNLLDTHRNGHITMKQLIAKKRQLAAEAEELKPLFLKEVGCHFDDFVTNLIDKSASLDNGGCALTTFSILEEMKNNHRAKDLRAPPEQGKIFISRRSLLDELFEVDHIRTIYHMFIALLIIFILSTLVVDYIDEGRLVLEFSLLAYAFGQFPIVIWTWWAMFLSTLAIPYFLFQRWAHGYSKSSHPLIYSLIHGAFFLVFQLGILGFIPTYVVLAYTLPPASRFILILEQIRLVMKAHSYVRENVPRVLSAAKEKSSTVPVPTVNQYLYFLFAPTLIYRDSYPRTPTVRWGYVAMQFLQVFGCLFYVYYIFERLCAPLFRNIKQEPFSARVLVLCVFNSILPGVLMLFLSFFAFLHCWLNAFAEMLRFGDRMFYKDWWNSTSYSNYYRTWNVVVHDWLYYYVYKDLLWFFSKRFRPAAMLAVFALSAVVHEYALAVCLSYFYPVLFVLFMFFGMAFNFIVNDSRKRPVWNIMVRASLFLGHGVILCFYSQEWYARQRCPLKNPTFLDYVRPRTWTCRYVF
The assay can be described thus: Inhibition of fatty acyl CoA:cholesterol acyl transferase (ACAT) in vitro (rat adrenal supernatant, oleoyl CoA-14C). In kind it is biochemical. The note with it: final concentration 5.2 μg./ml., 37° C.; for % Inhibition (ACAT): rat adrenal supernatant, pH 7.4; for inhibition at 5.2 µg/mL: pH 7.4, rat adrenal supernatant. The procedure: (§1) The compounds of the present invention were assayed for two types of biological activity related to their potential use as antiatherosclerotic agents. Compounds were tested in vitro for their ability to inhibit the enzymes fatty acyl CoA:cholesterol acyl transferase (ACAT) and in vivo for serum hypolipidemic activity as measured by their ability to inhibit lipid absorption in rats. The compounds were tested for their ability to inhibit ACAT according to the following procedure:
Rat adrenals were homogenized in 0.2M monobasic potassium phosphate buffer, pH 7.4, and centrifuged at 1000 times gravity for 15 minutes at 5° C. The supernatant, containing the microsomal fraction, served as the source of the cholesterol-esterifying enzyme, fatty acyl CoA:cholesterol acyl transferase (ACAT). A mixture comprising 50 parts of adrenal supernatant, 10 parts of albumin (BSA) (50 mg./ml.), 3 parts of test compound (final concentration 5.2 μg./ml.) and 500 parts of buffer was preincubated at 37° C. for 10 minutes. After treatment with 20 parts of oleoyl CoA(^14 C-0.4 μCi) the mixture was incubated at 37° C. for 10 minutes. A control mixture, omitting the test compound, was prepared and treated in the same manner. The lipids from the incubation mixture were extracted into an organic solvent and separated by thin-layer chromatography. The cholesteryl ester fraction was counted in a scintillation counter. This procedure is a modification of that described by Hashimoto, et al., Life Scie., 12 (Part II), 1-12 (1973).

Assay [2] in a line: Serum hypolipidemic activity in vivo: lowering of serum cholesterol and triglycerides in rats. The note with it: oral, 0.1% by weight in diet, 5 days, vs control animals. Set-up: species or system male rats COBS, CD, SD strain. The procedure:
as §1
The compounds were also tested for their ability to lower lipid levels in mammals. The compounds were administered orally admixed with diet (0.1% by weight) to groups of four male rats COBS, CD, SD strain from Charles River Breeding Laboratories, Inc, Wilmington, Mass. A control group of eight rats was maintained on the diet alone; test groups were maintained on the diet plus 0.1% of test compounds by weight. After 5 days treatment, serum cholesterol and triglyceride concentrations were determined by direct enzymatic procedures using a Centrifichem® System 400 autoanalyzer (Union Carbide Co.). Cholesterol concentrations were determined by the combined cholesterol esterase-cholesterol oxidase procedure of Roelschlau et. al., Zeit. Klin. Chem. Lkin. Biochem., 12, 226 (1974). Triglycerides were determined by the combined method of lipase catalyzed hydrolysis of triglycerides to glycerol and free fatty acids [Bucolo, G. and David, H., Clin. Chem. 19, 476 (1973)] and Wahlefeld, A. W., in "Methods of Enzymatic Analysis", Vol. 4, Bergmeyer, H. U., Editor, Academic Press, New York, N.Y. (1974), pp. 1831-1835 and the enzymatic oxidation of the glycerol which leads to the production of colored formazan [Stavropoulos, W. S. and Crouch, R. D., Clin. Chem., 20, No. 7, 857 (1974)]. […] Compounds which produce statistically significant lowering of either sterol or triglycerides are considered to be active.

Take `C[Si](C)(C)CCCCCCCCCCCNc1ccc(C(=O)[O-])cc1.[Na+]` [Sodium 4-[11-(trimethylsilyl)undecylamino]benzoate]: the “% Inhibition (ACAT)” value in assay [1] came to 56%. Also, in assay [2], the “% Lowering of Serum Sterol” value is listed as 52% and the “% Lowering of Serum Triglycerides” value was determined as 54%.
`CCOC(=O)c1ccc(NCCCCCCCCCCC[Si](C)(C)C)cc1` [Ethyl 4-[11-(trimethylsilyl)undecylamino]benzoate] returned an inhibition at 5.2 µg/mL in assay [1] of 17%. Besides, in assay [2], the “% Lowering of Serum Sterol” value stood at 43% and the “% Lowering of Serum Triglycerides” value is 22%.
Regarding `CCOC(=O)c1ccc(NCCCCCCCCCCCCCC[Si](C)(C)C)cc1` [Ethyl 4-[14-(trimethylsilyl)tetradecylamino]benzoate], at 5.2 µg/mL the inhibition in assay [1] was 50%. Also, in assay [2], the “% Lowering of Serum Sterol” value came out at 47% and the “% Lowering of Serum Triglycerides” value was 38%.
Turning to `C[Si](C)(C)CCCCCCCCCCCCCCNc1ccc(C(=O)O)cc1` [4-[14-(Trimethylsilyl)tetradecylamino]benzoic acid], the inhibition at 5.2 µg/mL in assay [1] is 60%. Besides, in assay [2], the “% Lowering of Serum Sterol” value was 60% and the “% Lowering of Serum Triglycerides” value is given as 70%.
In the case of `C[Si](C)(C)CCCCCCCCCCCCCCNc1ccc(C(=O)[O-])cc1.[Na+]` [Sodium 4-[14-(trimethylsilyl)tetradecylamino]benzoate], in assay [1], the “% Inhibition (ACAT)” value is reported as 62%. For the same compound, in assay [2], the “% Lowering of Serum Sterol” value was found to be 61% and the “% Lowering of Serum Triglycerides” value worked out at 78%.
For `C[Si](C)(C)CCCCCCCCCCCNc1ccc(C(=O)O)cc1` [4-[11-(Trimethylsilyl)undecylamino]benzoic acid], at 5.2 µg/mL the inhibition in assay [1] was 57%. Also, in assay [2], the “% Lowering of Serum Sterol” value stood at 56% and the “% Lowering of Serum Triglycerides” value is 75%.
Compound `C[Si](C)(C)CCCNc1ccc(C(=O)O)cc1` [4-[3-(Trimethylsilyl)propylamino]benzoic acid] displayed an inhibition at 5.2 µg/mL in assay [1] of 12%. In assay [2], the “% Lowering of Serum Sterol” value is 18% and the “% Lowering of Serum Triglycerides” value worked out at 53%.
In assay [1], `CCOC(=O)c1ccc(NCCC[Si](C)(C)C)cc1` [Ethyl 4-[3-(trimethylsilyl)propylamino]benzoate] displayed an inhibition at 5.2 µg/mL of 59%. Further, in assay [2], the “% Lowering of Serum Sterol” value turned out to be 23% and the “% Lowering of Serum Triglycerides” value came out at 46%.
Turning to `C[Si](C)(C)CCCNc1ccc(C(=O)[O-])cc1.[Na+]` [Sodium 4-[3-(trimethylsilyl)propylamino]benzoate], in assay [1], the “% Inhibition (ACAT)” value is given as 23%. In assay [2], the “% Lowering of Serum Sterol” value is recorded as 36% and the “% Lowering of Serum Triglycerides” value was determined as 23%.

The values are drawn from patent publication US4670421A, “Antiatherosclerotic silanes” (American Cyanamid Company, priority 1982, dated 1987).
